Test results reported in ChEMBL document CHEMBL6103613 (J Med Chem, 2025).
≈ marks a conversion by molar mass, not a printed value.

Key:
Staphylococcus aureus [1] = experiment: Antimicrobial activity against Staphylococcus aureus ATCC 25923 assessed as inhibition of visible bacterial growth incubated for 18 hrs by CLSI based analysis; type: functional
Staphylococcus aureus [2] = experiment: Antimicrobial activity against methicillin-resistant Staphylococcus aureus ATCC 43300 assessed as inhibition of visible bacterial growth incubated for 18 hrs by CLSI based analysis; type: functional
Staphylococcus aureus [3] = experiment: Antimicrobial activity against methicillin-resistant Staphylococcus aureus clinical isolate 2 assessed as inhibition of visible bacterial growth incubated for 18 hrs by CLSI based analysis; type: functional
Staphylococcus aureus [4] = experiment: Antimicrobial activity against methicillin-resistant Staphylococcus aureus clinical isolate 3 assessed as inhibition of visible bacterial growth incubated for 18 hrs by CLSI based analysis; type: functional
Staphylococcus aureus [5] = experiment: Antimicrobial activity against methicillin-resistant Staphylococcus aureus clinical isolate 4 assessed as inhibition of visible bacterial growth incubated for 18 hrs by CLSI based analysis; type: functional
Bacillus subtilis = experiment: Antimicrobial activity against Bacillus subtilis ATCC 23875 assessed as inhibition of visible bacterial growth incubated for 18 hrs by CLSI based analysis; type: functional
Enterococcus faecalis = experiment: Antimicrobial activity against Enterococcus faecalis ATCC 19433 assessed as inhibition of visible bacterial growth incubated for 18 hrs by CLSI based analysis; type: functional
Enterococcus faecium = experiment: Antimicrobial activity against vancomycin-resistant Enterococcus faecium assessed as inhibition of visible bacterial growth incubated for 18 hrs by CLSI based analysis; type: functional
Enterococcus gallinarum = experiment: Antimicrobial activity against Enterococcus gallinarum ATCC 49573 assessed as inhibition of visible bacterial growth incubated for 18 hrs by CLSI based analysis; type: functional
[6] = system: Staphylococcus epidermidis; experiment: Antimicrobial activity against Staphylococcus epidermidis ATCC 12228 assessed as inhibition of visible bacterial growth incubated for 18 hrs by CLSI based analysis; type: functional
Escherichia coli = experiment: Antimicrobial activity against Escherichia coli assessed as inhibition of visible bacterial growth incubated for 18 hrs by CLSI based analysis; type: functional
[7] = Hemolytic activity against mouse Red blood cell incubated for 1 hr; type: toxicity, cell-based; settings: erythrocyte
[8] = Therapeutic index, ratio of HC5 for hemolytic activity in mouse Red blood cell to MIC for antimicrobial activity against Staphylococcus aureus ATCC 25923 assessed as inhibition of visible bacterial growth; type: toxicity, cell-based, RBC; settings: red blood cells, read-out: TI
Staphylococcus aureus [9] = experiment: Antimicrobial activity against Staphylococcus aureus assessed as inhibition of visible bacterial growth incubated for 18 hrs by CLSI based analysis; type: functional
Candida albicans = experiment: Antifungal activity against Candida albicans assessed as reduction in fungal growth incubated for 18 hrs by CLSI based analysis; type: functional

## CC(C)C[C@H]1NC(=O)[C@H](Cc2c(C(c3ccccc3)c3ccccc3)[nH]c3ccccc23)NC(=O)[C@@H](C(C)C)NC(=O)[C@@H]2CSC(N2)[C@H](C(C)C)NC(=O)[C@@H](C(C)C)NC(=O)[C@H](C(C)C)NC1=O
Staphylococcus aureus [1]
  MIC: > 50 µg/mL
Staphylococcus aureus [2]
  MIC: > 50 µg/mL
Staphylococcus aureus [3]
  MIC: > 50 µg/mL
Staphylococcus aureus [4]
  MIC: > 50 µg/mL
Staphylococcus aureus [5]
  MIC: > 50 µg/mL
Bacillus subtilis
  MIC: > 50 µg/mL
Enterococcus faecalis
  MIC: > 50 µg/mL
Enterococcus faecium
  MIC: > 50 µg/mL
Enterococcus gallinarum
  MIC: > 50 µg/mL
[6]
  MIC: > 50 µg/mL

## CC(C)C[C@H]1NC(=O)[C@H](Cc2c[nH]c3ccccc23)NC(=O)[C@@H](C(C)C)NC(=O)[C@@H]2CSC(N2)[C@H](C(C)C)NC(=O)[C@@H](CCCCN)NC(=O)[C@H](C(C)C)NC1=O
Staphylococcus aureus [1]
  MIC: > 50 µg/mL
Staphylococcus aureus [2]
  MIC: > 50 µg/mL
Staphylococcus aureus [3]
  MIC: > 50 µg/mL
Staphylococcus aureus [4]
  MIC: > 50 µg/mL
Staphylococcus aureus [5]
  MIC: > 50 µg/mL
Bacillus subtilis
  MIC: > 50 µg/mL
Enterococcus faecalis
  MIC: > 50 µg/mL
Enterococcus faecium
  MIC: > 50 µg/mL
Enterococcus gallinarum
  MIC: > 50 µg/mL
[6]
  MIC: > 50 µg/mL

## CC(C)C[C@H]1NC(=O)[C@H](Cc2c(C(c3ccccc3)c3ccccc3)[nH]c3ccccc23)NC(=O)[C@@H](CCCCN)NC(=O)[C@@H]2CSC(N2)[C@H](C(C)C)NC(=O)[C@@H](C(C)C)NC(=O)[C@H](C(C)C)NC1=O
Staphylococcus aureus [1]
  MIC: 25 µg/mL (≈ 25.6 µM)
Staphylococcus aureus [2]
  MIC: 25 µg/mL (≈ 25.6 µM)
Staphylococcus aureus [3]
  MIC: 25 µg/mL (≈ 25.6 µM)
Staphylococcus aureus [4]
  MIC: 25 µg/mL (≈ 25.6 µM)
Staphylococcus aureus [5]
  MIC: 25 µg/mL (≈ 25.6 µM)
Bacillus subtilis
  MIC: 25 µg/mL (≈ 25.6 µM)
Enterococcus faecalis
  MIC: 25 µg/mL (≈ 25.6 µM)
Enterococcus faecium
  MIC: 50 µg/mL (≈ 51.1 µM)
Enterococcus gallinarum
  MIC: 50 µg/mL (≈ 51.1 µM)
[6]
  MIC: 25 µg/mL (≈ 25.6 µM)
Escherichia coli
  MIC: 3.13 µg/mL (≈ 3.2 µM)
[7]
  HC5: > 100 µg/mL
[8]
  selectivity ratio: > 4
Staphylococcus aureus [9]
  MIC: 3.13 µg/mL (≈ 3.2 µM)
Candida albicans
  MIC: 3.13 µg/mL (≈ 3.2 µM)

## CC(C)C[C@H]1NC(=O)[C@H](Cc2c(C(c3ccccc3)(c3ccccc3)c3ccccc3)[nH]c3ccccc23)NC(=O)[C@@H](C(C)C)NC(=O)[C@@H]2CSC(N2)[C@H](C(C)C)NC(=O)[C@@H](C(C)C)NC(=O)[C@H](C(C)C)NC1=O
Staphylococcus aureus [1]
  MIC: > 50 µg/mL
Staphylococcus aureus [2]
  MIC: > 50 µg/mL
Staphylococcus aureus [3]
  MIC: > 50 µg/mL
Staphylococcus aureus [4]
  MIC: > 50 µg/mL
Staphylococcus aureus [5]
  MIC: > 50 µg/mL
Bacillus subtilis
  MIC: > 50 µg/mL
Enterococcus faecalis
  MIC: > 50 µg/mL
Enterococcus faecium
  MIC: > 50 µg/mL
Enterococcus gallinarum
  MIC: > 50 µg/mL
[6]
  MIC: > 50 µg/mL

## CC(C)C[C@H]1NC(=O)[C@H](Cc2c(C(c3ccccc3)c3ccccc3)[nH]c3ccccc23)NC(=O)[C@@H](C(C)C)NC(=O)[C@@H]2CSC(N2)[C@H](C(C)C)NC(=O)[C@@H](CCCCN)NC(=O)[C@H](C(C)C)NC1=O
Staphylococcus aureus [1]
  MIC: 12.5 µg/mL (≈ 12.8 µM)
Staphylococcus aureus [2]
  MIC: 12.5 µg/mL (≈ 12.8 µM)
Staphylococcus aureus [3]
  MIC: 12.5 µg/mL (≈ 12.8 µM)
Staphylococcus aureus [4]
  MIC: 12.5 µg/mL (≈ 12.8 µM)
Staphylococcus aureus [5]
  MIC: 12.5 µg/mL (≈ 12.8 µM)
Bacillus subtilis
  MIC: 6.25 µg/mL (≈ 6.39 µM)
Enterococcus faecalis
  MIC: 25 µg/mL (≈ 25.6 µM)
Enterococcus faecium
  MIC: 25 µg/mL (≈ 25.6 µM)
Enterococcus gallinarum
  MIC: 25 µg/mL (≈ 25.6 µM)
[6]
  MIC: 12.5 µg/mL (≈ 12.8 µM)
Escherichia coli
  MIC: 3.13 µg/mL (≈ 3.2 µM)
[7]
  HC5: 43.53 µg/mL
[8]
  selectivity ratio: 3.48
Staphylococcus aureus [9]
  MIC: 3.13 µg/mL (≈ 3.2 µM)
Candida albicans
  MIC: 3.13 µg/mL (≈ 3.2 µM)

## CC(C)C[C@H]1NC(=O)[C@H](Cc2c(C(c3ccccc3)c3ccccc3)[nH]c3ccccc23)NC(=O)[C@@H](C(C)C)NC(=O)[C@@H]2CSC(N2)[C@H](C(C)C)NC(=O)[C@@H](C(C)C)NC(=O)[C@H](CCCCN)NC1=O
Staphylococcus aureus [1]
  MIC: 25 µg/mL (≈ 25.6 µM)
Staphylococcus aureus [2]
  MIC: 25 µg/mL (≈ 25.6 µM)
Staphylococcus aureus [3]
  MIC: 25 µg/mL (≈ 25.6 µM)
Staphylococcus aureus [4]
  MIC: 25 µg/mL (≈ 25.6 µM)
Staphylococcus aureus [5]
  MIC: 12.5 µg/mL (≈ 12.8 µM)
Bacillus subtilis
  MIC: 12.5 µg/mL (≈ 12.8 µM)
Enterococcus faecalis
  MIC: 50 µg/mL (≈ 51.1 µM)
Enterococcus faecium
  MIC: 50 µg/mL (≈ 51.1 µM)
Enterococcus gallinarum
  MIC: 50 µg/mL (≈ 51.1 µM)
[6]
  MIC: 25 µg/mL (≈ 25.6 µM)
Escherichia coli
  MIC: 3.13 µg/mL (≈ 3.2 µM)
[7]
  HC5: 64.74 µg/mL
[8]
  selectivity ratio: 2.59
Staphylococcus aureus [9]
  MIC: 3.13 µg/mL (≈ 3.2 µM)
Candida albicans
  MIC: 3.13 µg/mL (≈ 3.2 µM)
